Each structure is given as a SMILES string.

We go through three compounds from PMC11859928, “Design, Synthesis, and Antiproliferative Activity of Novel Indole/1,2,4-Triazole Hybrids as Tubulin Polymerization Inhibitors” (Pharmaceuticals, 2025).

Assay [1] relates to SGC-7901 cancer cell line. Also on record: method as in PMID 37182330. The note with it: cited from earlier work.
Assay [2] relates to multi-drug resistant K562R cell line. Also on record: method as in PMID 33038796. The note with it: cited from earlier work.
A further assay concerns the target T1, tubulin (Sus scrofa, UniProt P02550+P02554).
T1 construct: purchased Cytoskeleton Inc., Denver, CO, USA
The assay can be described thus: Tubulin polymerization inhibitory assay. The class given is biochemical. An excerpt:
The substances’ effects on tubulin polymerization were examined using the Tubulin Polymerization Assay Kit (Cytoskeleton Inc., Denver, CO, USA) according to the supplier’s instructions, with details described in Appendix A..
The activity of compounds on tubulin polymerization was investigated using the Tubulin Polymerization Assay Kit (Cytoskeleton Inc., Denver, CO, USA), which works via fluorescent reporter enhancement. […] Docetaxel and vincristine (Apoteket AB, Stockholm, Sweden) served as positive stabilizing and destabilizing controls. Both were used at a 3 µM concentration in PBS.

T1 sequence (P02554 whole entry): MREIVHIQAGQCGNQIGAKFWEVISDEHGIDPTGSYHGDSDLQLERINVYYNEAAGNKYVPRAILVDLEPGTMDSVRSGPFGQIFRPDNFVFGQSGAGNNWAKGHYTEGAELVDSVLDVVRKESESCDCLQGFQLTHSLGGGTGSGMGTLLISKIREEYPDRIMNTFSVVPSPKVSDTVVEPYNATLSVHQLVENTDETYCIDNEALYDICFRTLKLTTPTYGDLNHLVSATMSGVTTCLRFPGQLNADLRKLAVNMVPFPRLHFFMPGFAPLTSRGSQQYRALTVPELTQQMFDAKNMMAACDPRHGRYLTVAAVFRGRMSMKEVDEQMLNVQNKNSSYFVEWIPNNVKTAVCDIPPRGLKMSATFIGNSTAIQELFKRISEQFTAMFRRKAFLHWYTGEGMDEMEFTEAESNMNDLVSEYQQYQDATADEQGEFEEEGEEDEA
T1 sequence (P02550 whole entry): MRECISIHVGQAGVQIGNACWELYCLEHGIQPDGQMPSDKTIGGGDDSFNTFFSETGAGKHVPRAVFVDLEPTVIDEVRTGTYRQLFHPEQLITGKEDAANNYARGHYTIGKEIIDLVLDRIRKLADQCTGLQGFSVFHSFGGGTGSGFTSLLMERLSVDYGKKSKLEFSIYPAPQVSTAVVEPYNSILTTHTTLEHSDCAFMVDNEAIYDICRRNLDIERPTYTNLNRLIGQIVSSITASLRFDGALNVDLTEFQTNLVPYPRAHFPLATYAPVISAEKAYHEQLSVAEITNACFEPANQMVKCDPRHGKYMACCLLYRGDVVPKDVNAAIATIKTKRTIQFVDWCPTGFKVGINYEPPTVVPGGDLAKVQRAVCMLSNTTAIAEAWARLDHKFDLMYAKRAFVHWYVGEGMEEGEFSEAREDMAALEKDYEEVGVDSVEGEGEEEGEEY

Consider `COc1cc(-c2nc3scc(-c4cc(Cl)cc(Cl)c4)n3n2)cc(OC)c1OC` [IV], for which, in assay [1], the IC50 (in general, the concentration needed to halve the response being measured) was 210 nM.

With `Cc1cc(-c2cccc(-c3c[nH]c4ccccc34)n2)c2ccccc2n1` [Compound III], in assay [2], the “antiproliferative potency, times more effective than CA-4” value was 12 times and the “antiproliferative potency, times more effective than isoCA-4” value is reported as 1.5 times.

Consider `COc1ccc(/C=C\c2cc(OC)c(OC)c(OC)c2)cc1O` [CA-4, combretastatin A-4, reference compound], for which the %inhibition – broadly, the drop in the measured response relative to a control, in per cent – on tubulin (conc 0.01 (unit not given; IC50 from this curve in µg/ml)) came to 8.7%; on tubulin (conc 0.1 (unit not given; IC50 from this curve in µg/ml)) it was 21.2%; at tubulin (conc 1 (unit not given; IC50 from this curve in µg/ml)), 34.9%; on tubulin (conc 10 (unit not given; IC50 from this curve in µg/ml)), 59%; on tubulin (conc 100 (unit not given; IC50 from this curve in µg/ml)), 84.2%.
